In PubChem BioAssay (NCI):
Where “and” joins values, the source holds several entries; their conditions need not be identical. Equal values may be shown once.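 Protocol summary: plate cells (96-well), add compound at 5 concentrations, incubate 48 h, interpolate endpoints linearly. Abbreviation: GI50, concentration required for 50% inhibition of growth. TGI denotes the concentration required for complete inhibition of growth.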

What was measured:
Experiment in all cases: NCI-60 cell line screen, 48 h
[1] = test system: HCC-2998 colon
[2] = test system: K-562 leukemia
[3] = test system: MOLT-4 leukemia
[4] = test system: OVCAR-3 ovarian
[5] = test system: OVCAR-4 ovarian
[6] = test system: OVCAR-5 ovarian
[7] = test system: SF-295 CNS
[8] = test system: SK-OV-3 ovarian
[9] = test system: SW-620 colon
[10] = test system: UACC-257 melanoma

| Compound | GI50 [1] | TGI [1] [µM] | GI50 [2] [µM] | TGI [2] | GI50 [3] [µM] | TGI [3] | GI50 [4] [µM] | TGI [4] | GI50 [5] [µM] | TGI [5] | GI50 [6] | TGI [6] | GI50 [7] | TGI [7] | GI50 [8] | TGI [8] [µM] | GI50 [9] [µM] | TGI [9] | GI50 [10] [µM] | TGI [10] |
| --- | --- | --- | --- | --- | --- | --- | --- | --- | --- | --- | --- | --- | --- | --- | --- | --- | --- | --- | --- | --- |
| COc1ccc(OC)c(Cn2cc3c(c2-c2ccccc2)CCc2cnoc2-3)c1 | 8.83 µM | > 100 | 2.67 | > 100 µM | 3.95 | > 100 µM | 2.7 | 7.95 µM | 11.3 | > 100 µM | 10.8 µM | > 100 µM | 3.19 µM | > 100 µM | 7.48 µM | > 100 | 3.69 | > 100 µM | 30.7 | > 100 µM |
| Cc1c2ccccc2cc2ccc3oc([N+](=O)[O-])cc3c12 |  | > 100 |  | > 100 µM |  | > 100 µM |  | > 100 µM |  | > 100 µM |  | > 100 µM |  | > 100 µM |  | > 100 |  | > 100 µM |  | > 100 µM |
| CCC1=CC2CN(C1)Cc1c([nH]c3ccccc13)[C@@](C(=O)OC)(c1cc3c(cc1OC)N(C)[C@H]1[C@@](O)(C(=O)OC)[C@H](OC(C)=O)[C@]4(CC)C=CCN5CC[C@]31[C@@H]54)C2 (some centres not stated) | 0.0108 µM and 0.0162 µM |  | < 0.005 | 16.6 µM and 15.2 µM | 0.0105 | 11.1 µM and 13.9 µM | < 0.005 | 0.00611 µM and 0.0135 µM | 0.0341 | 50 µM and > 100 µM | 0.0325 µM and 0.0785 µM | 50 µM and > 100 µM | 0.0151 µM and 0.0231 µM | 50 µM and > 100 µM |  | 11.8 | < 0.005 | 50 µM and > 100 µM | 7.54 | 33.3 µM |
| CC(C)(Oc1ccc(/C=C/C(=O)c2ccc(Cl)cc2)cc1)C(=O)Nc1c(Cl)cccc1Cl |  | 51.5 |  | > 100 µM |  | 96.5 µM |  | 44.8 µM |  | > 100 µM |  | > 100 µM |  | 49.6 µM |  | > 100 |  | 27.8 µM |  | 99.6 µM |
| O=C(O)c1ccc(C2C(=O)N[C@@H]3CCC[C@H]23)cc1 (some centres not stated) |  | > 100 |  | > 100 µM |  | > 100 µM |  | > 100 µM |  | > 100 µM |  | > 100 µM |  | > 100 µM |  | > 100 |  | > 100 µM |  | > 100 µM |
| CCOC(=O)NC(=O)c1cn(CCN2CCN(C(=O)CCCCCCCCCCC(=O)N3CCN(CCn4cc(C(=O)NC(=O)OCC)c(=O)[nH]c4=O)CC3)CC2)c(=O)[nH]c1=O |  | > 100 |  | > 100 µM |  | > 100 µM |  | > 100 µM |  | > 100 µM |  | > 100 µM |  | > 100 µM |  | > 100 |  | > 100 µM |  | > 100 µM |
| CCN(C(=O)/C=C/c1ccco1)c1ccccc1 |  | > 100 |  | > 100 µM |  | > 100 µM |  | > 100 µM |  | > 100 µM |  | > 100 µM |  | > 100 µM |  | > 100 |  | > 100 µM |  | > 100 µM |
| CN(C)CCNC(=O)Cn1ccc(=O)c2c([N+](=O)[O-])cccc21 |  | > 100 |  | > 100 µM |  | > 100 µM |  | > 100 µM |  | > 100 µM |  | > 100 µM |  | > 100 µM |  | > 100 |  | > 100 µM |  | > 100 µM |
| O=C1CCCCN1CCCCC#Cc1cccc(C#Cc2cccnc2)c1 | 6.52 µM | 23.1 | 14.7 | > 100 µM | 73.1 | > 100 µM | 22.6 | 71.4 µM | 13.4 | 32.1 µM | 17.7 µM | 41.7 µM | 18.1 µM | 84 µM | 16.4 µM | 32.2 | 39.9 | > 100 µM | 17.7 | 49.6 µM |
| CC(C)(C)c1cc(C=C(C#N)C#N)cc(C(C)(C)C)c1O |  | 18.4 |  | > 354 µM |  | 10.6 µM | 0.456 | 29.2 µM and 3.85 µM | 0.523 | > 354 µM | 0.402 µM |  | 0.284 µM | 1.23 µM and 3.4 µM | 0.229 µM and 0.302 µM |  | 0.462 | 30.9 µM and 45.4 µM |  | 0.898 µM and 3.27 µM |
| Cc1ccccc1C(=O)N1CCN(C(=O)c2ccccc2C)CC1 |  | > 100 |  | > 100 µM |  | > 100 µM |  | > 100 µM |  | > 100 µM |  | > 100 µM |  | > 100 µM |  | > 100 |  | > 100 µM |  | > 100 µM |
| Cc1nc(C(N)=S)sc1C(=O)/C=C/c1c(O)ccc2ccccc12 |  | > 100 |  | > 64.7 µM |  | > 69 µM |  | > 84.3 µM |  | > 100 µM |  | > 100 µM |  | > 100 µM |  | > 100 |  | > 100 µM |  | > 100 µM |
| O=[N+]([O-])c1ccc(-c2ccc(-c3csc(Nc4ccccc4)n3)o2)cc1 |  | 56.5 |  | 32.1 µM |  | 46.2 µM |  | 33.7 µM |  | 32 µM |  | 31.6 µM |  | > 86.4 µM |  | > 100 |  | 56.7 µM |  | 33.3 µM |
| COC(=O)C1(C)Cc2cc(OC(C)=O)c(OC(C)=O)cc2N1 (configuration not stated) | 17.8 µM | 33 | 3.67 | > 100 µM | 8.18 | > 60.2 µM | 6.97 | 23.8 µM | 9.34 | 22.9 µM | 20 µM | 47 µM | 67.5 µM | > 100 µM | > 87.4 µM | > 100 | 8.83 | 28.7 µM | 1.68 | 11.4 µM |
| C=C1C(=O)O[C@H]2[C@H]1CC/C(C=Nc1c(N)cc(C(F)(F)F)cc1Br)=C\CC[C@@]1(C)O[C@@H]21 | 1.83 µM | 3.52 | 1.99 | 6.87 µM | 0.624 | > 100 µM | 1.29 | 2.65 µM | 1.57 | 3.45 µM | 1.83 µM | 3.75 µM | 2.66 µM | 7.96 µM | 6.56 µM | 18.9 | 1.53 | 3.71 µM | 1.64 | 3.61 µM |
| CCCCN(CC)CC(C(C)=O)c1c(O)c2ccccc2oc1=O (configuration not stated) |  | > 100 |  | > 100 µM |  | > 100 µM |  | > 100 µM |  | > 100 µM |  | > 100 µM |  | > 100 µM |  | > 100 |  | > 100 µM |  | > 100 µM |
| CCNC(=O)c1noc(-c2cc(C(C)C)c(O)cc2O)c1-c1ccc(CN2CCOCC2)cc1 | 0.0267 µM | 1.05 | < 0.0172 | > 46.3 µM | 0.0326 | > 100 µM | 0.0529 | 19.1 µM | 10.9 | > 100 µM | 0.0631 µM | 29.3 µM | 0.0287 µM | 11.2 µM | < 0.01 µM | 22.3 | < 0.01 | 23.9 µM | 0.0259 | 0.159 µM |
